# Tests used:
# Type in all cases: cell-based, human
# [1] = test system: HLA-DR; experiment: Growth of E04.1 cells cocultured with peptide-pulsed B-LCL(-) cells treated with anti-HLA antibodies; settings: cocultured with B-LCL(-) cells pulsed with 20 μg/ml peptide; FIG. 5
# Description: E04.1 cells established in Example 4 were seeded in 96-well culture plate at 1×10^4 cells/well. B cell line B-LCL (−) cells established from blood of an HLA-DRB1*0405-positive healthy volunteer in Example 3 were pulsed with WT1332-347 peptide at a concentration of 20 μg/ml and treated by X-ray irradiation, seeded in 96-well plate at 3×10^4 cells/well, and cocultured with E04.1 cells. As a negative control group, B-LCL (−) cells not pulsed with the peptide were cocultured with E04.1 cells.
# As test groups, B-LCL (−) cells having been pulsed with WT1332-347 peptide and undergone X-ray irradiation were treated with 20 μg/ml of anti-HLA-DR antibody (G46.6, BD ParMingen), anti-H LA-class I antibody (G46-2.6, BD ParMingen), or anti-HLA-DQ antibody (SPVL3, Immunotech) for 30 minutes, and cocultured with E04.1 cells to confirm HLA-DR restricted nature. As a negative control group for antibody treatment, cells treated with anti-mouse IgG antibody were cocultured with E04.1 cells in a similar manner.
# Following cocultivation, growth of E04.1 cells was measured in a manner similar to Example 4.
# [2] = test system: E04.1 cells; experiment: Cytokine production of E04.1 cells (intracellular staining, flow cytometer); settings: cocultured with dendritic cells pulsed with peptide; FIG. 9
# Description: Dendritic cells prepared from blood of an HLA-DRB1*0405-positive healthy volunteer in a manner similar to Example 4 were pulsed with WT1332-347 peptide, mixed with E04.1 cells, and cultured for 24 hours. As a negative control group, dendritic cells not pulsed with the peptide were mixed with E04.1 cells. After 24-hour-cultivation, Brefeldin A was added to a final concentration of 10 μg/ml to inhibit exocytosis of E04.1 cells. Further, CD4-positive T cells were recovered after culturing for another 6 hours, and fixed with PBC containing 2% formaldehyde, and treated by permeabilization solution containing 0.1% saponin to increase the cell membrane permeability of antibody. The treated cells were then intracellularly stained by treating with PE-labeled anti-IFN-γ antibody (BD PharMingen) and FITC-labeled anti-IL-4 antibody (BD PharMingen), and analyzed using a flow cytometer.
# [3] = test system: E15.2 subline; experiment: Cytokine production of E15.2 subline (intracellular stain method); settings: stimulated with peptide; FIG. 16
# Description: In the same manner as growth assay, CD4-positive T cells were cocultured with stimulators for 2 hours, and thereto was added Brefeldin A. Four hours later, cells were recovered, subjected to treatment for fixation and permeation, stained with FITC-labeled anti-IL-4 antibody (BD Pharmingen) and PE-labeled anti-IFN-γ antibody (BD Pharmingen), and analyzed by flow cytometry.
# E15.2 subline was then stimulated with WT1332-347 peptide, and the secreted IL-4 and IFN-γ were measured by Intracellular stain method.
sequence,measurement,setting,value
"KRYFKLSHLQMHSRKH [WT1332-347, Position 332-347 of human WT1]",proliferative response of E04.1 cells,[1],showed proliferative response
same,IFN-γ production by E04.1 cells,[2],induced strongly
same,IL-4 production by E04.1 cells,[2],not to produce
same,IFN-γ production by E15.2 subline,[3],dominantly produced
same,IL-4 production by E15.2 subline,[3],not IL-4
